The target in one test is Acetylcholinesterase (Homo sapiens, UniProt P22303). The class given is functional.
In a further test the target is T1, Adenosine receptor A3 (Homo sapiens, UniProt P0DMS8).
T1 sequence (P0DMS8 whole entry): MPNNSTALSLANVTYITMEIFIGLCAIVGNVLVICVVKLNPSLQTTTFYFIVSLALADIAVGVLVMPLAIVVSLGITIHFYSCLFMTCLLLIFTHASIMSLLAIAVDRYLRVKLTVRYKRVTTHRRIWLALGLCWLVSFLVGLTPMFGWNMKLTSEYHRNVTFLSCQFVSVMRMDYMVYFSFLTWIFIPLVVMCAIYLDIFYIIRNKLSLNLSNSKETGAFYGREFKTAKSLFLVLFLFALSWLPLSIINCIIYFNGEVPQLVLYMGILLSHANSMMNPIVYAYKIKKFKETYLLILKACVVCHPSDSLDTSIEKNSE

The target of a further test is D(3) dopamine receptor (Homo sapiens, UniProt P35462).
For the next test, the target named is T2, Estrogen receptor (Homo sapiens, UniProt P03372).
T2 sequence (P03372 whole entry): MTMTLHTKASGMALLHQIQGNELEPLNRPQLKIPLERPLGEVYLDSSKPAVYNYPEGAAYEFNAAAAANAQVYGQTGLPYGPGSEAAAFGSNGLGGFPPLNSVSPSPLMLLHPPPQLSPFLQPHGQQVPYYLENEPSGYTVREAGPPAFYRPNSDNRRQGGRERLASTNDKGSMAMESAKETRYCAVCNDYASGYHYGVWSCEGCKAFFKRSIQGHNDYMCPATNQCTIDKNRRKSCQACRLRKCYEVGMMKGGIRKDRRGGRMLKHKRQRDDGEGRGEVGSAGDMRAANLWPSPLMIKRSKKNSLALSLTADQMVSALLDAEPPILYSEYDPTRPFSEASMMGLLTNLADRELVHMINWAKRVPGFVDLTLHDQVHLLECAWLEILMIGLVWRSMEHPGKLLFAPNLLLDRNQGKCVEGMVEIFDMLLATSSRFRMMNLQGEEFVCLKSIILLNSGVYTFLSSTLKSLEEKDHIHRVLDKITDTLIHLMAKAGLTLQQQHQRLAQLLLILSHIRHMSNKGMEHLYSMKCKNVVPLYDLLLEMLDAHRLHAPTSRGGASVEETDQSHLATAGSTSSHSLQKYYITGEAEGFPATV

The target of the next test is Prothrombin (Homo sapiens, UniProt P00734). Type of test: functional.
Test [1] deals with T3, 5-hydroxytryptamine receptor 1A (Homo sapiens, UniProt P08908).
T3 sequence (P08908 whole entry): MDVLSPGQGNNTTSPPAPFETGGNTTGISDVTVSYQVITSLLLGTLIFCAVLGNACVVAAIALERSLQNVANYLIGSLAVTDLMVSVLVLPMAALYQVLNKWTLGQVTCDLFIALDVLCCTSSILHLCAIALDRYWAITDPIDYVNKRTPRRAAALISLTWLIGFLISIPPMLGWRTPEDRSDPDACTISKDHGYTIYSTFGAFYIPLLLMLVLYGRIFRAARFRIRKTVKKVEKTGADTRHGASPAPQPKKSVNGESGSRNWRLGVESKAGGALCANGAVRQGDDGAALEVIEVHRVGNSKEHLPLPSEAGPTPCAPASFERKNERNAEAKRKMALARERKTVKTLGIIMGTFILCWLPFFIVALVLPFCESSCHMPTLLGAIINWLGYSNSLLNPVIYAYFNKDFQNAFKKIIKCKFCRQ

In test [2] the target is 5-hydroxytryptamine receptor 2B (Homo sapiens, UniProt P41595). The class given is functional, cell-based.
Test [3] concerns the target Vascular endothelial growth factor receptor 2 (Homo sapiens, UniProt P35968). The class given is functional.
The target in test [4] is T4, Amine oxidase [flavin-containing] A (Homo sapiens, UniProt P21397).
T4 sequence (P21397 whole entry): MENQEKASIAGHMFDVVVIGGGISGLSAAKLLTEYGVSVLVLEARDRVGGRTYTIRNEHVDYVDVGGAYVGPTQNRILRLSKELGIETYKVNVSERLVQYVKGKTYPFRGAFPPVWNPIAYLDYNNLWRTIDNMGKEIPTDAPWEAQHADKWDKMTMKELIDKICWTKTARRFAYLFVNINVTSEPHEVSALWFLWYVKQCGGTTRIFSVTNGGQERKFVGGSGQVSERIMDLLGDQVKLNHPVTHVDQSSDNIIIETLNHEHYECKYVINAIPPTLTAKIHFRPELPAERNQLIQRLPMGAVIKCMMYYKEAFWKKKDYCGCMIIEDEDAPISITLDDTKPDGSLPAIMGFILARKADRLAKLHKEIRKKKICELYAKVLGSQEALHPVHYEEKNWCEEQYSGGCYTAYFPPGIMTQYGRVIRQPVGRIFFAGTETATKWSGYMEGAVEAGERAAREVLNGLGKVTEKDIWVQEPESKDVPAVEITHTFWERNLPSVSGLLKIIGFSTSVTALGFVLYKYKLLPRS
The class given is functional.

Test [5] has as its target cGMP-inhibited 3',5'-cyclic phosphodiesterase 3A (Homo sapiens, UniProt Q14432). The class given is functional.
Test [6] addresses Prostaglandin G/H synthase 1 (Homo sapiens, UniProt P23219). Type of test: functional.
Test [7] concerns the target Sodium-dependent noradrenaline transporter (Homo sapiens, UniProt P23975).
The target in test [8] is Sodium-dependent dopamine transporter (Homo sapiens, UniProt Q01959).
The target in test [9] is Sodium-dependent serotonin transporter (Homo sapiens, UniProt P31645).
The next test addresses T5, Thromboxane A2 receptor (Homo sapiens, UniProt P21731).
T5 sequence (P21731 whole entry): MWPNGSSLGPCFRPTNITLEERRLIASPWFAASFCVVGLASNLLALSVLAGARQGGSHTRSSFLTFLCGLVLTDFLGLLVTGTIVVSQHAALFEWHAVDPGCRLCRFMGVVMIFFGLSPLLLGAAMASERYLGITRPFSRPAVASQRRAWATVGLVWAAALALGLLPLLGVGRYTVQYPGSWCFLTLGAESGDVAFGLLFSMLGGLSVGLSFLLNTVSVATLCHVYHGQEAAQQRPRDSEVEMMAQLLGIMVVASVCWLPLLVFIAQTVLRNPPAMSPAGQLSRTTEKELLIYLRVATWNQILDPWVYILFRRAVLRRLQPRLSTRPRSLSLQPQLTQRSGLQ
The class given is functional, cell-based.

Test [10] deals with Voltage-gated inwardly rectifying potassium channel KCNH2 (Homo sapiens, UniProt Q12809). The class given is functional. The settings on record: read-out: AC50.
Note: assay procedure not described here.

D(3) dopamine receptor, sequence (P35462 whole entry): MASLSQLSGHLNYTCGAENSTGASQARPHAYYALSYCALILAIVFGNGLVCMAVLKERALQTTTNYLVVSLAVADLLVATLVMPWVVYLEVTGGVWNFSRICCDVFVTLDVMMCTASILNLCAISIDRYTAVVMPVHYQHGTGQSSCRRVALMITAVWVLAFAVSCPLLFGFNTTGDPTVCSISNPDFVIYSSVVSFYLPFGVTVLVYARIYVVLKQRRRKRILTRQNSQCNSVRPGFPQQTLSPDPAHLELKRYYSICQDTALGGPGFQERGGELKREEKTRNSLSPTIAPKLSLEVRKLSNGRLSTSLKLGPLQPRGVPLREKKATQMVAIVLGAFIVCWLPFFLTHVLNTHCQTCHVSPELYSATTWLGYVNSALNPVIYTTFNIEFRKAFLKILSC
Voltage-gated inwardly rectifying potassium channel KCNH2, sequence (Q12809 whole entry): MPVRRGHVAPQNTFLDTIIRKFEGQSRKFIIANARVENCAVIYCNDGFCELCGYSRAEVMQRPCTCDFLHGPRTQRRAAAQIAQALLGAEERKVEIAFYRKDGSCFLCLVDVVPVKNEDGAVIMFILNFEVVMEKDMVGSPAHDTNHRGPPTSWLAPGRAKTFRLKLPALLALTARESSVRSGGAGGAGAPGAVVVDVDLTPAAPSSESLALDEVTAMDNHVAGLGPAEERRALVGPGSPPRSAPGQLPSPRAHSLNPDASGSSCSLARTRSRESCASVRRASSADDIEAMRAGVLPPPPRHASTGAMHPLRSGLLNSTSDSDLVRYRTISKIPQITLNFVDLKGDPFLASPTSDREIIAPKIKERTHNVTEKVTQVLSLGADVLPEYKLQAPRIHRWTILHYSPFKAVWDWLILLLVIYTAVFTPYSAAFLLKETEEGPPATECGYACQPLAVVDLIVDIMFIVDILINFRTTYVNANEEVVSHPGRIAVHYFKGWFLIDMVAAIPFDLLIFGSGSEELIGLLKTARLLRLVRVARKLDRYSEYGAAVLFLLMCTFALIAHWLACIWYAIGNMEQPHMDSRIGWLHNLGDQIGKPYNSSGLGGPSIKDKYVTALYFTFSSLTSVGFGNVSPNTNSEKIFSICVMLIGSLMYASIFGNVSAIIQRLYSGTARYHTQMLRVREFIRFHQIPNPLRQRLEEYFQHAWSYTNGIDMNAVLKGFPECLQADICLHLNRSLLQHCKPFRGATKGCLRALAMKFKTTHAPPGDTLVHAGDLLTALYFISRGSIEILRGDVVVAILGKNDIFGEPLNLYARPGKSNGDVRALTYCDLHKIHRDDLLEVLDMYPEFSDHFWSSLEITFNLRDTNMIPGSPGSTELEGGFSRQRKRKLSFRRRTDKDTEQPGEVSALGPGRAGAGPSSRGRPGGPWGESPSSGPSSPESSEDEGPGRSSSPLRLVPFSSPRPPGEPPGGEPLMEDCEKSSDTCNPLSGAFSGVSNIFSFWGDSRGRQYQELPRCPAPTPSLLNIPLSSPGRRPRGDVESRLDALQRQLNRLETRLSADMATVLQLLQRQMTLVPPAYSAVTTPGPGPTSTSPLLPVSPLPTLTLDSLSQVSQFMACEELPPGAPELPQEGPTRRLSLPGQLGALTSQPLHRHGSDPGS
cGMP-inhibited 3',5'-cyclic phosphodiesterase 3A, sequence (Q14432 whole entry): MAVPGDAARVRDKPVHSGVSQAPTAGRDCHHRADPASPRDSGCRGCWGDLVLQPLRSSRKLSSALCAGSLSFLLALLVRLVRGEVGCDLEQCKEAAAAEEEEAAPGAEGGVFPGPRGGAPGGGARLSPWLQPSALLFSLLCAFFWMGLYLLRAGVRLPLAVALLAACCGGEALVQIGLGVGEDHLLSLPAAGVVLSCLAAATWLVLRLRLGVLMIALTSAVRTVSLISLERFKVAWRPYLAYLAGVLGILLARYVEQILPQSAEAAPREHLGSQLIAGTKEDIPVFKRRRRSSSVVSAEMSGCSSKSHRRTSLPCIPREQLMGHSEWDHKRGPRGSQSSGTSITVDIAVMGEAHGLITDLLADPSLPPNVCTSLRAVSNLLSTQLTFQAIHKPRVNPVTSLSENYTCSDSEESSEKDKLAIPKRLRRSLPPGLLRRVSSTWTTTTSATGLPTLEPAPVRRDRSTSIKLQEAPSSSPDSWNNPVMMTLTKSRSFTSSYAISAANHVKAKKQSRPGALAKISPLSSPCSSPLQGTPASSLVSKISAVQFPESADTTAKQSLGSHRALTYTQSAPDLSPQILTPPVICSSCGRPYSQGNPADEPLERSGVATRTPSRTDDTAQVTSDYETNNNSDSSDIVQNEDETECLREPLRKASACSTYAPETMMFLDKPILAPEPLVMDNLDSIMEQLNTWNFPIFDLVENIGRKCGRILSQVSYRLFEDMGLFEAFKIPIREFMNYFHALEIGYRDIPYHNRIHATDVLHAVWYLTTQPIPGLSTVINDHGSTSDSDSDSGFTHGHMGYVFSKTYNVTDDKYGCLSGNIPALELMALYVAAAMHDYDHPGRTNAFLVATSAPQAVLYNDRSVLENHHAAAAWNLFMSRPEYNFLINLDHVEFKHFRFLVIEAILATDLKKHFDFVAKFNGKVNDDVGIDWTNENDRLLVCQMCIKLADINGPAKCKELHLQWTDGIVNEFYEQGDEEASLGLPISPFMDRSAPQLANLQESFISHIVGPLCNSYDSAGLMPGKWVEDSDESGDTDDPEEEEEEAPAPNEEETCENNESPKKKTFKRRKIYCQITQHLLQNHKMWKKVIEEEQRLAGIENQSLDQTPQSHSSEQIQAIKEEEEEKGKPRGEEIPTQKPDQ
Sodium-dependent serotonin transporter, sequence (P31645 whole entry): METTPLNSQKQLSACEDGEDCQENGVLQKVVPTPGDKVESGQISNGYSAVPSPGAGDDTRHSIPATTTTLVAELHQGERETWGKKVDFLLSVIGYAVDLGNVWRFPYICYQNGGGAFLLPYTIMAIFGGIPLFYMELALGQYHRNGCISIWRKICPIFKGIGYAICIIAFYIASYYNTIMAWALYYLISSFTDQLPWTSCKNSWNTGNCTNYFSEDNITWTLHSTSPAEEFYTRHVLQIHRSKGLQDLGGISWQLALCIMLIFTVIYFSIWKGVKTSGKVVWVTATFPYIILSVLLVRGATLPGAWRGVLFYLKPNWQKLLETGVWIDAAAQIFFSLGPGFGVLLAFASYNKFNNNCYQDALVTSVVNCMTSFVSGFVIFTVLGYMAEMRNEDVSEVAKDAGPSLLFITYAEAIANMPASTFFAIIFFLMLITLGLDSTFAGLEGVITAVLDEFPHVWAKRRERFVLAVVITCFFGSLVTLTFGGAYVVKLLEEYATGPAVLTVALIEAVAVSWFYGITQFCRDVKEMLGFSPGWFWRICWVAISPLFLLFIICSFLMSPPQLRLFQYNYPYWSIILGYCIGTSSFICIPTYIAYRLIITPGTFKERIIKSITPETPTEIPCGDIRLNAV
5-hydroxytryptamine receptor 2B, sequence (P41595 whole entry): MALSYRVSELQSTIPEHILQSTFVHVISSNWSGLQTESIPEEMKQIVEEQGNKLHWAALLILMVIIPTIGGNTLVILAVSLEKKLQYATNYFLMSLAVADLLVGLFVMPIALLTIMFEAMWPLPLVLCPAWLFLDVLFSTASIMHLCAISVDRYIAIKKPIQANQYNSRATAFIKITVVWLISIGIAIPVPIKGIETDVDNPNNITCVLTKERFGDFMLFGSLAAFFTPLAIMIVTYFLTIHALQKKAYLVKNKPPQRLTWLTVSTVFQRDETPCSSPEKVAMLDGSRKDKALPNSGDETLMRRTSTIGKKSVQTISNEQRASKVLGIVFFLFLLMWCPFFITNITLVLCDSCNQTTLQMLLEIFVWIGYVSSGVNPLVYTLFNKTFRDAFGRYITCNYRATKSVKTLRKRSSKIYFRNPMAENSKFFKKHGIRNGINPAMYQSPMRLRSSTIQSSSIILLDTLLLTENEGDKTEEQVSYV
Sodium-dependent noradrenaline transporter, sequence (P23975 whole entry): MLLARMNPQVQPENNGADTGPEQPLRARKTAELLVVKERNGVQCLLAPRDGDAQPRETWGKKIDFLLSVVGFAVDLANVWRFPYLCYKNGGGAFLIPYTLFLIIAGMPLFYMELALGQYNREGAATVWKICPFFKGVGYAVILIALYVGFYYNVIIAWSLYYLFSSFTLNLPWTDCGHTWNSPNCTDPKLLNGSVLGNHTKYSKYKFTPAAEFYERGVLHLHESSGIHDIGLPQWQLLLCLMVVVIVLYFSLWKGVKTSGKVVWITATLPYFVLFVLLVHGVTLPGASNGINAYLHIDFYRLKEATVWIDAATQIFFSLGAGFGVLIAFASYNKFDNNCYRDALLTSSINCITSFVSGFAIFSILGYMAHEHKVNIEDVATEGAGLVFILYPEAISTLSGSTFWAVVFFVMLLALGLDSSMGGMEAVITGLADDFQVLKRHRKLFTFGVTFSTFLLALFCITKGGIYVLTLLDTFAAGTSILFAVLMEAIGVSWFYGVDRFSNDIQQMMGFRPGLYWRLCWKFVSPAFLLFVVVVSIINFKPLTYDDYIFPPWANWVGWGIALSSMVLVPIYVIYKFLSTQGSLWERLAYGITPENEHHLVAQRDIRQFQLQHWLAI
Acetylcholinesterase, sequence (P22303 whole entry): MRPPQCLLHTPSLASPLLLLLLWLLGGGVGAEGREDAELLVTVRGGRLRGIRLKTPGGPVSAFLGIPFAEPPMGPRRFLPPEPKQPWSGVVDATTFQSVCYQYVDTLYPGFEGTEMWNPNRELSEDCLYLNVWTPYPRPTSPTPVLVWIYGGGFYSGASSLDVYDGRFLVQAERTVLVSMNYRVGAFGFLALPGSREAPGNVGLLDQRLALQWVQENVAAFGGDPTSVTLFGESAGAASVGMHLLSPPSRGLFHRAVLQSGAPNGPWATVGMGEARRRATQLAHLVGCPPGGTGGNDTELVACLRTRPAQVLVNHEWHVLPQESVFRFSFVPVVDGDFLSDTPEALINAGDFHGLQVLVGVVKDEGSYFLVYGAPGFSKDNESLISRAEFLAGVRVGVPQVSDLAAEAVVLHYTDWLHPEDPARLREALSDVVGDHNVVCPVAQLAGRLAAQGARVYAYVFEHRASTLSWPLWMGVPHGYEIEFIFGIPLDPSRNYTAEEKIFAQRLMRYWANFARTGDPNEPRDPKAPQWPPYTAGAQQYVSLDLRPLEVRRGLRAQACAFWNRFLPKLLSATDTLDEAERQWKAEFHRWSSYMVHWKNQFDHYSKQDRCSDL

On to `CC1(C)S[C@@H]2[C@H](NC(=O)[C@H](NC(=O)c3cnc4cccnc4c3O)c3ccccc3)C(=O)N2[C@H]1C(=O)O` [APALCILLIN], for which the AC50 is above 30 µM at Acetylcholinesterase; 29 µM at Adenosine receptor A3; above 30 µM on D(3) dopamine receptor; above 30 µM on Estrogen receptor; above 30 µM at Prothrombin; above 30 µM in test [1]. For the same molecule, the AC50 in test [2] was above 30 µM; in test [3], above 30 µM; in test [4], above 30 µM; in [5], above 30 µM; in test [6], 17.6 µM; in test [7] it was above 30 µM. In addition, the AC50 (in [8]; in [9]; on Thromboxane A2 receptor) was above 30 µM each time.

For the molecule `CC(NCCC(c1ccccc1)c1ccccc1)c1ccccc1` (stereo not given) [FENDILINE], the AC50 on Acetylcholinesterase is above 30 µM; at Adenosine receptor A3, 26.8 µM; at D(3) dopamine receptor it was 9.87 µM; at Estrogen receptor, above 30 µM; at Prothrombin, above 3 µM; in test [1], 14.9 µM. Besides, the AC50 in test [2] was above 30 µM; in [10] it was 1.3 µM; in test [3] it was above 30 µM; in [4] it was above 30 µM; in test [5], above 30 µM; in [6], above 30 µM. The AC50 was 3.26 µM in test [7], 3.48 µM in [8] and 7.94 µM in test [9].

With `CC(C)Cc1ccc(C(C)C(=O)OCc2ccccn2)cc1` (stereo not given) [IBUPROFEN PICONOL], the AC50 on Acetylcholinesterase is above 30 µM; on Adenosine receptor A3 it was 15.8 µM; on Estrogen receptor, above 30 µM; on Prothrombin, above 30 µM; in [1] it was above 30 µM; in [2], above 30 µM. The AC50 in test [10] is above 30 µM; in test [3], above 30 µM; in test [4], above 30 µM; in [5], above 30 µM; in test [6] it was above 30 µM; in test [7], 22.1 µM. In addition, the AC50 (in [8]; in [9]; at Thromboxane A2 receptor) was above 30 µM throughout.

Turning to `Cc1cccc(C)c1NC(=O)CN(CC(=O)O)CC(=O)O` [LIDOFENIN], the AC50 (at Acetylcholinesterase; on Adenosine receptor A3; at D(3) dopamine receptor; at Prothrombin; in test [1]; in test [2]) was above 30 µM throughout. In addition, the AC50 in test [10], in test [3], in [4], in test [5], in test [6] and in test [7] was above 30 µM throughout. Further, the AC50 (in test [8]; in test [9]; on Thromboxane A2 receptor) was above 30 µM throughout.

`CN1CCCC(CC2c3ccccc3Sc3ccccc32)C1` (stereo not given) [METHIXENE]: the AC50 on Acetylcholinesterase is above 30 µM; on Adenosine receptor A3 it was above 30 µM; on D(3) dopamine receptor, 0.742 µM; on Estrogen receptor it was above 30 µM; on Prothrombin, above 30 µM; in test [1], 1.9 µM. Moreover, the AC50 in test [2] is above 30 µM; in test [10], 3.1 µM; in test [3] it was above 30 µM; in [4], above 30 µM; in test [5] it was above 30 µM; in test [6], above 30 µM. Further, the AC50 in test [7] is 3.29 µM; in test [8] it was above 30 µM; in test [9], 18.2 µM.

`COCC(=O)O[C@]1(CCN(C)CCCc2nc3ccccc3[nH]2)CCc2cc(F)ccc2[C@@H]1C(C)C` [MIBEFRADIL]: the AC50 at Acetylcholinesterase was above 30 µM; on Adenosine receptor A3, 14.3 µM; at D(3) dopamine receptor, 0.825 µM; at Estrogen receptor it was above 30 µM; at Prothrombin it was above 30 µM; in test [1] it was 0.746 µM. Besides, the AC50 in test [2] is above 30 µM; in [3], above 30 µM; in [4], above 30 µM; in test [5], above 30 µM; in test [6], above 30 µM; in test [7], 20.2 µM. The AC50 is 9.53 µM in [8], 22.8 µM in test [9] and above 3 µM on Thromboxane A2 receptor.

In the case of `Cc1ncc(CO)c(CO)c1O` [PYRIDOXINE], the AC50 (at Acetylcholinesterase; at Adenosine receptor A3; on D(3) dopamine receptor; at Prothrombin; in test [1]; in test [2]) was above 30 µM throughout. Also, the AC50 in test [10], in [3], in test [4], in test [5], in test [6] and in [7] was above 30 µM each time. Besides, the AC50 (in test [8]; in [9]; on Thromboxane A2 receptor) was above 30 µM in each case.

Turning to `COc1cc(C[C@@H]2NCCc3cc(O)c(O)cc32)cc(OC)c1OC` [TRETOQUINOL], the AC50 at Acetylcholinesterase was above 30 µM; on Adenosine receptor A3, above 30 µM; at D(3) dopamine receptor, 1.81 µM; at Estrogen receptor, above 30 µM; on Prothrombin, above 30 µM; in test [1], 7.31 µM. The AC50 in test [2], in test [10], in test [3], in [4], in [5] and in [6] was above 30 µM throughout. Besides, the AC50 in test [7], in test [8] and in test [9] was above 30 µM each time.

Values taken from ChEMBL document CHEMBL5291721, “A preclinical secondary pharmacology resource illuminates target-adverse drug reaction associations of marketed drugs” (Nat Commun, 2023).
